# Experimental data from article PMC12355554, “Development of novel mitochondrial pyruvate carrier inhibitors for breast cancer treatment” (The Journal of Biological Chemistry, 2025).
# Entries after “also recorded” stand apart in the source; their conditions may differ.
# What was measured:
# [1] = Maximum tolerated dose study, oral dosing, 21 days; type: in vivo, severe combined immunodeficient mice
# MDA-MB-231 = experiment: Sulforhodamine B cell proliferation inhibition assay, MDA-MB-231; type: cell-based; details: Homo sapiens, 72 h
# Method: Cells were seeded (3 × 10^4 cells/well) in 48-well plates and incubated overnight (37 °C, 5% CO2). Test compounds were then exposed to cells in duplicate in serial dilution fashion and were incubated for an additional 72 h (37 °C, 5% CO2). Media were then aspirated, and cells were washed three times with cold PBS and left overnight to dry fix. […] Dyed cells were then lysed with Tris (10 mM, pH 10), and absorbance readings were recorded at 540 nm of each well. Treatment absorbances are taken as percentages of the average untreated absorbances and plotted against log(concentration) in GraphPad Prism 10 to generate effective concentration values where 50% of the cells are not proliferating (EC50).
# [2] = tested on: MPC or MCT expression levels; experiment: Western blotting of MPC and MCT expression; type: cell-based; details: Western blot
# Method: After denaturation at 95 °C for 10 min in radioimmunoprecipitation buffer, protein concentration was determined and equilibrated using the bicinchoninic acid assay (ThermoScientific), and 20 μg of protein was separated by electrophoresis in 4 to 12% polyacrylamide gels. Proteins were electrophoretically transferred to polyvinylidene fluoride membranes for 90 min at 100 V and stained with Ponceau to verify transfer quality and equal protein loading. […] Santa Cruz, catalog no.: sc-365501, 1:1000 dilution; MCT4, Santa Cruz, catalog no.: sc-376140, 1:1000 dilution; MPC1, Cell Signaling, 1:1000 dilution, catalog no.: 14462; MPC2, Cell Signaling, 1:1000 dilution, catalog no.: 46141; […] TBST, 0.5% nonfat milk protein). Membranes were rinsed three times with TBST and incubated with the respective secondary goat antimouse IgG (1:10,000 dilution) or goat anti-rabbit IgG (1:10,000 dilution) horseradish peroxidase–conjugated antibodies (Cell Signaling). Membranes were again washed three times with TBST and exposed to SuperSignal 60 West luminol enhancer and stable peroxide solution (ThermoScientific) for 2 min. Chemiluminescent images were obtained using a LicorFC imager. Images shown are representative of two separate experiments obtained from independent biological samples.
# [3] = tested on: glutamate-driven respiration in 4T1 cells; experiment: Seahorse glutamate-driven respiration in permeabilized 4T1 cells; type: cell-based, murine; details: Glu/Mal, candidate compounds 1 μM
# Source text: (§1) Although our initial experiments and previous literature illustrate the ability of the candidate compounds to inhibit Pyr-driven respiration, we sought to investigate the ability of candidate compounds to inhibit respiration fueled by other metabolic substrates, glutamate and succinate (Fig. 2). Glutamate, similar to Pyr oxidation, results in NADH equivalents that fuel complex I-mediated respiration, and succinate metabolism offers FADH2 for electrons in complex II-driven respiratory processes. […] To further validate the mode of action of the candidate compounds, a series of similar Seahorse experiments were employed (Fig. 2, A–C). In these experiments, 4T1 cells were first permeabilized and were then offered metabolic substrates Pyr (Pyr/Mal; Fig. 2A), glutamate (Glu/Mal, Fig. 2B), or succinate (Fig. 2C), and the resulting OCR was observed. As described previously, Mal and DCA were included in the substrate milieu of glutamate respiration experiments. […] To validate that inhibition of Pyr respiration is due to mitochondrial Pyr uptake and not other Pyr-processing enzymes (i.e., Pyr dehydrogenase), a parallel experiment using methyl pyruvate (MePyr) was employed (Fig. 2, E and F). MePyr is permeable to the mitochondrial membranes, where in the matrix, mitochondrial esterase hydrolysis activity provides Pyr.
# (§2) Permeabilized cell assays were performed using rPFO as described previously. 4T1 cells were seeded (20,000 cells/well) onto Seahorse XFe96 well plates and incubated overnight in growth media at 37 °C and 5% CO2 for adherence. On the day of the assay, growth media were aspirated and replaced with MAS buffer (70 mM sucrose, 220 mM mannitol, 10 mM potassium phosphate monobasic, 5 mM magnesium chloride, 2 mM Hepes, and 1 mM EGTA) after 3X rinse of growth media to remove serum and endogenous metabolic substrates, and incubated at 37 °C in a non-CO2 incubator. Respective inhibitor and substrate milieu's were prepared in MAS buffer for port injections A–D at 8X, 9X, 10X, and 11X the target cell concentrations to account for intrinsic dilution factor of in situ injections of each port. […] Final substrate concentrations for specific tests were as follows: (5 mM Pyr , 0.5 mM Mal, 2 mM DCA; 10 mM glutamate, 0.5 mM Mal, 2 mM DCA; 10 mM succinate, 2 μM rotenone; 20 mM methyl Pyr, 5 mM Pyr, 0.5 mM Mal, and 2 mM DCA). ATP rate assays and mitochondrial stress tests were performed according to the manufacturer's (Agilent) instructions.
# 4T1 = experiment: MTT cell proliferation inhibition assay, 4T1; type: cell-based, murine; details: Mus musculus, 72 h, 3 days, average ± SEM
# Method: Confluent cell cultures were treated with trypsin and resuspended at 5 × 10^4 cells/ml. To a 96-well plate, 100 μl of the 5 × 10^4 cells/ml solution were added and allowed to incubate at 37 °C, 5% CO2 for 24 h. Compounds were then added and allowed to incubate for 3 days. […] Following the 4-h incubation with 3-(4,5-dimethylthiazol-2-yl)-2,5-diphenyltetrazolium bromide, 100 μl of SDS (0.1 g/ml, 0.01 N HCl) was added, and 96-well plates were allowed to incubate for an additional 4 h. […] Treatment absorbances are taken as percentages of the average untreated absorbances and plotted against log(concentration) in GraphPad Prism 10 (GraphPad Software, Inc) to generate effective concentration values where 50% of the cells are not proliferating (EC50).
# [4] = General tolerability dose escalation, intraperitoneal, CD-1 mice; type: in vivo
# Method: After obtaining PK parameters of C5, we carried out a general tolerability dose escalation study via intraperitoneal injection to determine a maximum tolerated dose for future tumor efficacy studies (Fig. S3B). […] In CD-1 mice, dosing began at 5 mg/kg for 7 days. After 7 days, dosing was increased to 6 mg/kg; however, at this dose, there were acute respiratory effects and lethargy observed in the mice deeming it a toxic dose.
# Dosing was increased to 6 mg/kg on day 8, but significant acute respiratory effects were observed indicating toxicity. Due to this acute effect, the study was terminated, and all mice were euthanized. The study was carried out following Institutional Animal Care and Use Committee protocol 2211-40546A.
# [5] = tested on: succinate-driven respiration in 4T1 cells; experiment: Seahorse succinate-driven respiration in permeabilized 4T1 cells; type: cell-based, murine; details: candidate compounds 1 μM
# Source text: as §1, §2
structure (smiles),measurement,setting,value
"CN(Cc1ccc(C(F)(F)F)cc1)c1ccc2cc(C(=O)O)c(=O)oc2c1.NC(CO)(CO)CO [C5, 1,3-dihydroxy-2-(hydroxymethyl)propan-2-aminium 7-(methyl(4-(trifluoromethyl)benzyl)amino)-2-oxo-2H-chromene-3-carboxylate]",MTD at 21 days,"[1]; female, BALB/c, mouse, in vivo, oral, daily for 21 days",40 mg/kg
same,changes in body weight or behavior,"[1]; oral 10, 20, 40 mg/kg daily for 21 days",not any significant changes
same,EC50,MDA-MB-231,> 1000 µM
same,effect on MPC or MCT expression levels,[2],does not alter
same,effect on glutamate-driven respiration,[3],does not alter; also recorded: did not alter
same,EC50,4T1,23.4 ± 4.9 µM
same,toxic dose (acute respiratory effects and lethargy),[4],6 mg/kg
same,MTD at 7 days,"[4]; female, mouse, in vivo, ip, once daily 7 days, read-out: maximum tolerated dose",5 mg/kg
same,effect on succinate-driven respiration,[5],does not alter; also recorded: did not alter
